Measurements published in patent publication US11578087B2, “Oxaborole esters and uses thereof” (priority 2016, dated 2023).

Tests used:
[1] = system: T. cruzi amastigote (Td Tomato-modified) in Vero cells; test: In vitro IC50 measurement of T. cruzi amastigote killing using Td Tomato-modified T. cruzi; type: cell-based; conditions: Trypanosoma cruzi, 72 h, fluorescence, read-out: IC50: I Org. amastigote Growth T. cruzi 3 d
How it was run: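 IC50/IC90 came from nonlinear regression of Day 3 minus Day 0 fluorescence (544/612 nm), correcting for input parasites. Final compound concentrations spanned 5 nM–5 uM on Td Tomato T. cruzi-infected Vero cells, 72 h at 37 °C.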

[2] = system: IL3000 T. congolense (drug sensitive) strain; test: In vitro Alamar Blue 72 h drug sensitivity assay for T. congolense; type: cell-based, Trypanosoma congolense; conditions: Trypanosoma congolense, 72 h, bloodstream form, 69 h + 3 h Resazurin, 34° C., read-out: IC50: I Org. Growth T. congolense 3 d
How it was run: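 IC50 values derive from 11-point curves averaged over at least three independent runs, with fluorescence read at 536 nm excitation and 588 nm emission. Resazurin was added for a final 3 h after 69 h compound exposure of bloodstream forms (HMI medium, 20% bovine serum, 34° C, 5% CO2).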

SMILES | IC50 [1] | IC50 [2]
Cc1c(C(=O)N[C@H](C(=O)OCc2cnccn2)C(C)C)ccc2c1B(O)OC2 [Example 6-186, Pyrazin-2-ylmethyl (1-hydroxy-7-methyl-1,3-dihydrobenzo[c][1,2]oxaborole-6-carbonyl)-L-valinate] | 21 to 999 nM | 0.51 to 9.99 nM
Cc1c(C(=O)N[C@H](C(=O)OCC2CCCO2)C(C)C)ccc2c1B(O)OC2 (stereo partly drawn) [Example 6-210, (tetrahydrofuran-2-yl)methyl (1-hydroxy-7-methyl-1,3-dihydrobenzo[c][1,2]oxaborole-6-carbonyl)-L-valinate] | ≤ 20 nM | < 0.5 nM
Cc1c(C(=O)N[C@H](C(=O)OCc2cc(F)c(F)c(F)c2)C(C)C)ccc2c1B(O)OC2 [Example 6-100, 3,4,5-Trifluorobenzyl (1-hydroxy-7-methyl-1,3-dihydrobenzo[c][1,2]oxaborole-6-carbonyl)-L-valinate] | ≤ 20 nM | < 0.5 nM
Cc1c(C(=O)N[C@H](C(=O)OCCc2ccccn2)C(C)C)ccc2c1B(O)OC2 [Example 6-173, 2-(Pyridin-2-yl)ethyl (1-hydroxy-7-methyl-1,3-dihydrobenzo[c][1,2]oxaborole-6-carbonyl)-L-valinate] | ≤ 20 nM | < 0.5 nM
Cc1c(C(=O)N[C@H](C(=O)OCc2ccc(OCCN3CCCC3)c(F)c2)C(C)C)ccc2c1B(O)OC2 [Example 6-242, 3-Fluoro-4-(2-(pyrrolidin-1-yl)ethoxy)benzyl (1-hydroxy-7-methyl-1,3-dihydrobenzo[c][1,2]oxaborole-6-carbonyl)-L-valinate] | ≤ 20 nM | 0.51 to 9.99 nM
CCc1c(C(=O)N[C@H](C(=O)OCc2ccc(S(C)(=O)=O)cc2)C(C)C)ccc2c1B(O)OC2 [Example 6-076, 4-(Methylsulfonyl)benzyl (7-ethyl-1-hydroxy-1,3-dihydrobenzo[c][1,2]oxaborole-6-carbonyl)-L-valinate] | 21 to 999 nM | 0.51 to 9.99 nM
COCCOC(=O)[C@@H](NC(=O)c1ccc2c(c1C)B(O)OC2)C(C)C [Example 6-107, 2-Methoxyethyl (1-hydroxy-7-methyl-1,3-dihydrobenzo[c][1,2]oxaborole-6-carbonyl)-L-valinate] | ≤ 20 nM | < 0.5 nM
Cc1c(C(=O)N[C@H](C(=O)OCc2ccc(C(F)(F)F)cn2)C(C)C)ccc2c1B(O)OC2 [Example 6-171, (5-(trifluoromethyl)pyridin-2-yl)methyl (1-hydroxy-7-methyl-1,3-dihydrobenzo[c][1,2]oxaborole-6-carbonyl)-L-valinate] | ≤ 20 nM | < 0.5 nM
Cc1c(C(=O)N[C@H](C(=O)OCc2ccc(S(C)(=O)=O)cc2)C(C)C)ccc2c1B(O)OC2 [Example 6-056, 4-(Methylsulfonyl)benzyl (1-hydroxy-7-methyl-1,3-dihydrobenzo[c][1,2]oxaborole-6-carbonyl)-L-valinate] | 21 to 999 nM | 0.51 to 9.99 nM
Cc1c(C(=O)N[C@H](C(=O)OCCN2CC3(COC3)C2)C(C)C)ccc2c1B(O)OC2 [Example 6-218, 2-(2-oxa-6-azaspiro[3.3]heptan-6-yl)ethyl (1-hydroxy-7-methyl-1,3-dihydrobenzo[c][1,2]oxaborole-6-carbonyl)-L-valinate] | ≥ 1000 nM | 10 to 5000 nM
CCOc1c(C(=O)N[C@H](C(=O)OCc2ccc(F)cc2)C(C)C)ccc2c1B(O)OC2 [Example 6-196, 4-Fluorobenzyl (7-ethoxy-1-hydroxy-1,3-dihydrobenzo[c][1,2]oxaborole-6-carbonyl)-L-valinate] | ≥ 1000 nM | 0.51 to 9.99 nM
Cc1c(C(=O)N[C@H](C(=O)OCc2ccc(F)c(F)c2)C(C)(C)O)ccc2c1B(O)OC2 [Example 6-098, 3,4-Difluorobenzyl (S)-3-hydroxy-2-(1-hydroxy-7-methyl-1,3-dihydrobenzo[c][1,2]oxaborole-6-carboxamido)-3-methylbutanoate] | ≤ 20 nM | < 0.5 nM
Cc1c(C(=O)N(C)[C@H](C(=O)OCc2ccc(F)cc2)C(C)C)ccc2c1B(O)OC2 [Example 6-118, 4-Fluorobenzyl N-(1-hydroxy-7-methyl-1,3-dihydrobenzo[c][1,2]oxaborole-6-carbonyl)-N-methyl-L-valinate] | ≥ 1000 nM | 10 to 5000 nM
Cc1c(C(=O)N[C@H](C(=O)OCc2cccc(CN3CCOCC3)c2)C(C)C)ccc2c1B(O)OC2 [Example 6-083, 3-(Morpholinomethyl)benzyl (1-hydroxy-7-methyl-1,3-dihydrobenzo[c][1,2]oxaborole-6-carbonyl)-L-valinate] | ≤ 20 nM | < 0.5 nM
Cc1c(C(=O)N[C@H](C(=O)OC2CCCC2)C(C)C)ccc2c1B(O)OC2 [Example 6-132, Cyclopentyl (1-hydroxy-7-methyl-1,3-dihydrobenzo[c][1,2]oxaborole-6-carbonyl)-L-valinate] | ≤ 20 nM | < 0.5 nM
Cc1c(C(=O)N[C@H](C(=O)OCCN2CCCC2=O)C(C)C)ccc2c1B(O)OC2 [Example 6-212, 2-(2-oxopyrrolidin-1-yl)ethyl (1-hydroxy-7-methyl-1,3-dihydrobenzo[c][1,2]oxaborole-6-carbonyl)-L-valinate] | 21 to 999 nM | 10 to 5000 nM
Cc1c(C(=O)N[C@H](C(=O)OCCC(C)(C)O)C(C)C)ccc2c1B(O)OC2 [Example 6-209, 3-hydroxy-3-methylbutyl (1-hydroxy-7-methyl-1,3-dihydrobenzo[c][1,2]oxaborole-6-carbonyl)-L-valinate] | 21 to 999 nM | 0.51 to 9.99 nM
CNCc1cccc(COC(=O)[C@@H](NC(=O)c2ccc3c(c2C)B(O)OC3)C(C)C)c1 [Example 6-122, 3-((Methylamino)methyl)benzyl (1-hydroxy-7-methyl-1,3-dihydrobenzo[c][1,2]oxaborole-6-carbonyl)-L-valinate] | ≥ 1000 nM | 10 to 5000 nM
CCCc1c(C(=O)N[C@H](C(=O)OCc2ccccc2)C(C)C)ccc2c1B(O)OC2 [Example 6-065, Benzyl (1-hydroxy-7-propyl-1,3-dihydrobenzo[c][1,2]oxaborole-6-carbonyl)-L-valinate] | 21 to 999 nM | 0.51 to 9.99 nM
Cc1c(C(=O)N[C@H](C(=O)OCc2cncs2)C(C)C)ccc2c1B(O)OC2 [Example 6-120, Thiazol-5-ylmethyl (1-hydroxy-7-methyl-1,3-dihydrobenzo[c][1,2]oxaborole-6-carbonyl)-L-valinate] | 21 to 999 nM | 0.51 to 9.99 nM
COCC(COC)OC(=O)[C@@H](NC(=O)c1ccc2c(c1C)B(O)OC2)C(C)C [Example 6-139, 1,3-Dimethoxypropan-2-yl (1-hydroxy-7-methyl-1,3-dihydrobenzo[c][1,2]oxaborole-6-carbonyl)-L-valinate] | 21 to 999 nM | 10 to 5000 nM
Cc1c(C(=O)N[C@H](C(=O)OCc2ccc(F)cc2)[C@H](C)OCc2ccc(F)cc2)ccc2c1B(O)OC2 [Example 6-097, 4-Fluorobenzyl O-(4-fluorobenzyl)-N-(1-hydroxy-7-methyl-1,3-dihydrobenzo[c][1,2]oxaborole-6-carbonyl)-L-allothreoninate] | 21 to 999 nM | 0.51 to 9.99 nM
Cc1c(C(=O)N[C@H](C(=O)OCc2cccc(N3CCN(C)CC3)c2)C(C)C)ccc2c1B(O)OC2 [Example 6-072, 3-(4-Methylpiperazin-1-yl)benzyl (1-hydroxy-7-methyl-1,3-dihydrobenzo[c][1,2]oxaborole-6-carbonyl)-L-valinate] | ≤ 20 nM | < 0.5 nM
CC[S+]([O-])c1ccc(COC(=O)[C@@H](NC(=O)c2ccc3c(c2C)B(O)OC3)C(C)C)cc1 (stereo partly drawn) [Example 6-094, 4-(Ethylsulfinyl)benzyl (1-hydroxy-7-methyl-1,3-dihydrobenzo[c][1,2]oxaborole-6-carbonyl)-L-valinate] | 21 to 999 nM | 0.51 to 9.99 nM
Cc1c(C(=O)N[C@H](C(=O)OC2CCCCC2)C(C)C)ccc2c1B(O)OC2 [Example 6-133, Cyclohexyl (1-hydroxy-7-methyl-1,3-dihydrobenzo[c][1,2]oxaborole-6-carbonyl)-L-valinate] | ≤ 20 nM | < 0.5 nM
Cc1c(C(=O)NC2(C(=O)OCCN3CCOCC3)COC2)ccc2c1B(O)OC2 [Example 6-222, 2-morpholinoethyl 3-(1-hydroxy-7-methyl-1,3-dihydrobenzo[c][1,2]oxaborole-6-carboxamido)oxetane-3-carboxylate] | ≥ 1000 nM | 10 to 5000 nM
CC(C)(C)[C@H](NC(=O)c1ccc2c(c1)B(O)OC2)C(=O)OCc1ccccc1 [Example 6-017, Benzyl (S)-2-(1-hydroxy-1,3-dihydrobenzo[c][1,2]oxaborole-6-carboxamido)-3,3-dimethylbutanoate] | ≥ 1000 nM | 10 to 5000 nM
Cc1c(C(=O)N[C@H](C(=O)OCCN2CCOCC2)C(C)C)ccc2c1B(O)OC2 [Example 6-170, 2-Morpholinoethyl (1-hydroxy-7-methyl-1,3-dihydrobenzo[c][1,2]oxaborole-6-carbonyl)-L-valinate] | 21 to 999 nM | 0.51 to 9.99 nM
Cc1c(C(=O)N[C@H](C(=O)OCc2ccc(OCCN3CCCC3)c(Cl)c2)C(C)C)ccc2c1B(O)OC2 [Example 6-243, 3-Chloro-4-(2-(pyrrolidin-1-yl)ethoxy)benzyl (1-hydroxy-7-methyl-1,3-dihydrobenzo[c][1,2]oxaborole-6-carbonyl)-L-valinate] | 21 to 999 nM | 0.51 to 9.99 nM
Cc1c(C(=O)N[C@H](C(=O)OCc2ccc3ccccc3n2)C(C)C)ccc2c1B(O)OC2 [Example 6-125, Quinolin-2-ylmethyl (1-hydroxy-7-methyl-1,3-dihydrobenzo[c][1,2]oxaborole-6-carbonyl)-L-valinate] | 21 to 999 nM | < 0.5 nM
